Measurements reported in ChEMBL document CHEMBL1201862, “PubChem BioAssay data set” (2004).
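Test compounds were applied to cells in 96-well plates for 48 hours at 5 doses. Here, GI50 denotes the concentration required for 50% inhibition of growth.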 The source made the active and inactive calls. No stated cut-off is given here; in the data, active = GI50 up to about 1.1 µM and inactive = higher.

What was measured:
Experiment in all cases: DTP human tumour cell line panel, 48 h
SNB-19 = system: SNB-19
EKVX = system: EKVX
UACC-62 = system: UACC-62
OVCAR-5 = system: OVCAR-5
NCI-H522 = system: NCI-H522
SNB-75 = system: SNB-75
HOP-92 = system: HOP-92
A549 = system: A549
HL-60 = system: HL-60
SW-620 = system: SW-620
SN12C = system: SN12C
SK-MEL-2 = system: SK-MEL-2
OVCAR-4 = system: OVCAR-4
NCI/ADR-RES = system: NCI/ADR-RES
SF-268 = system: SF-268
IGROV-1 = system: IGROV-1
K562 = system: K562
SK-OV-3 = system: SK-OV-3
HOP-62 = system: HOP-62
OVCAR-8 = system: OVCAR-8

Measured: GI50

Cn1c2ccc([N+](=O)[O-])cc2c(=O)n1Cc1ccccc1F
inactive: SNB-19 33.5 µM | EKVX 41.5 µM | UACC-62 48.5 µM | OVCAR-5 46.3 µM | NCI-H522 24.5 µM | SNB-75 20.9 µM | HOP-92 27.7 µM | A549 44.3 µM | HL-60 64.4 µM | SW-620 > 100 µM | SN12C > 100 µM | SK-MEL-2 53.8 µM | OVCAR-4 47.8 µM | NCI/ADR-RES 23 µM | SF-268 36.6 µM | IGROV-1 35.1 µM | K562 38.5 µM | SK-OV-3 > 100 µM | HOP-62 57 µM | OVCAR-8 28.6 µM

CC1=C2C3OC(=O)C(C)C3CCC2(C)C=C/C1=N\c1ccccc1 (stereo not given)
inactive: SNB-19 > 100 µM | EKVX > 100 µM | UACC-62 > 100 µM | OVCAR-5 > 100 µM | NCI-H522 > 100 µM | SNB-75 > 53.3 µM | HOP-92 > 100 µM | A549 > 100 µM | HL-60 > 100 µM | SW-620 > 100 µM | SN12C > 100 µM | SK-MEL-2 > 100 µM | OVCAR-4 > 100 µM | NCI/ADR-RES > 100 µM | SF-268 > 100 µM | IGROV-1 > 100 µM | K562 > 100 µM | SK-OV-3 > 100 µM | HOP-62 > 100 µM | OVCAR-8 > 100 µM

CC1NC(=O)C(C)C(c2ccccc2)N(N=O)C1c1ccccc1 (stereo not given)
inactive: SNB-19 > 76.9 µM | EKVX > 83 µM | UACC-62 > 88.5 µM | OVCAR-5 > 100 µM | NCI-H522 88.9 µM | SNB-75 > 38.3 µM | HOP-92 39.7 µM | A549 > 100 µM | HL-60 22.9 µM | SW-620 > 100 µM | SN12C > 100 µM | SK-MEL-2 > 100 µM | OVCAR-4 31.3 µM | NCI/ADR-RES > 69.8 µM | SF-268 > 100 µM | IGROV-1 > 81.5 µM | K562 33 µM | SK-OV-3 28.2 µM | HOP-62 > 87.9 µM | OVCAR-8 > 100 µM
